One block for each molecule: values may come before it.
Legend:
[1] = tested on: C. elegans strain AM141; assay: Q40::YFP aggregate fluorescence per worm; type: in vivo; conditions: 5 days post-hatch
Source text: C. elegans strains: Nematode strains used in this study were all obtained from the Caenorhabditis Genetics Center (CGC; Minneapolis, MN). Nematode models of Alzheimer's disease-like arnyloidosis were CL4176 [smg-1^ts; myo-3p::Aβ1-42::let-851 3′-UTR; rol-6(sul006)] expressing human Aβ1-42 in muscle; and CL2355 [smg-l^ts; snb-1::Aβ1-42::3′UTR(long); mtl-2::gfp] expressing human Aβ1-42 in all neurons. Strain AM141 expresses a polyglutamine reporter (Q40::YFP) in muscle, and thus serves as a model of glutamine-tract aggregation similar to that observed in Huntington disease and several other neuropathologies (Morley et al., 2002). All strains were propagated at 20° C. on2% (w/v) agar plates containing nematode growth medium (NGM), overlaid with E col strain OP50 unless otherwise noted.
(§1) RNAi in C.elegans. RNA-mediated interference (RNAi) is achieved by feeding bacteria that express double-stranded RNA corresponding to an exonic fragment of the mRNA target (Ayyadevara et al., 2016c; Fire et al., 1991; Fire et al., 1998; Kakraba et al., 2019). Briefly, worm cultures were synchronized by alkaline hypochlorite lysis to release unlaid eggs. […] Worms on adult day 3 (5.5 days post-hatch) were imaged to assess total aggregate fluorescence (strain AM141), or were assessed for paralysis (VH255) or chemotaxis toward n-butanol (CL2355).

[2] = tested on: SH-SY5Y-APPSw cells; assay: Total sarkosyl-insoluble aggregate protein, SYPRO Ruby stained gels; type: cell-based, human; conditions: for suppression of aggregate protein: cells treated 48 h, sarkosyl-insoluble fraction
Description: MSR1 treatment of SH-SY5Y-APPSw, cells. Human neuroblastoma (SH-SY5Y-APPSw) cells were grown as previously described (Kakraba et al., 2)19, Liu et al., 2005). SH-SY5Y-APPSw cells, expressing an aggregation-prone “Swedish” double mutant of amyloid precursor protein (APPSw), were grown in DMEM plus 10% (v/v) FBS at 37° C. Cells were suspended in trypsin/EDTA and rinsed in buffer prior to replating or harvesting. Immediately preceding assay, cells were grown 48 hr in the presence of 10-μM MSR1 dissolved in DMSO (0.02% final concentration), or 0.02% DMSO (solvent alone) for control cells. Cells were harvested, total protein was isolated, and aggregate proteins were purified as described below.
Isolation of aggregate proteins. Cultured human cells were collected, flash frozen in liquid nitrogen, and homogenized at 0° C. in the presence of buffer containing nonionic detergent (1% v/v NP40, 20-mM Hepes pH 7.4, 300-mM NaCl, 2-mM MgCl2, and protease/phosphatase inhibitors [CalBiochem]). Lysates were centrifuged (5 min, 3000 rpm at 4° C.) to remove debris. After removal of cytosolic proteins (soluble in 1% NP40 nonionic detergent) by centrifugation (18 min, 13,000×g at 4° C.), protein pellets were brought to pH 7.4 with 0.1-M HEPES buffer containing 1% v/v sarkosyl(sodium lauryl sarcosinate) and 5-mM EDTA, and centrifuged 30 min at 100,000×g. Pellet proteins (the sarkosyl-insoluble fraction) were resuspended in Laemmli loading buffer (containing 50-mM dithiothreitol and 2% v/v SDS, sodium dodecyl sulfate), heated 5 min at 95° C. to dissolve proteins soluble in this buffer, and separated by electrophoresis on 4-20% polyacrylamide gradient gels containing 1% v/v SDS. Gels were stained with SYPRO Ruby (ThermoFisher) or Coomassie Blue to visualize protein. Gel lanes were robotically cut into 1-mm slices, and digested thoroughly with trypsin. Proteins in each slice were identified by mass spectrometry as described previously (Ayyadevara et al., 2015; Ayyadevara et al., 2016a; Ayyadevara et al., 2016b; Ayyadevara et al., 2016c; Ayyadevara et al., 2016d; Balasubramaniam et al., 2018).

[3] = tested on: C. elegans strain CL2355; assay: Chemotaxis to n-butanol in Aβ1-42 expressing C. elegans; type: in vivo; conditions: 0.1 μM
Description: Chemotaxis and paralysis assay)s in Aβ-tragsgenic C elegans strains CL2355 and CL4176. Transgenic C. elegans strains, expressing Aβ1-42 in neurons (C2355) or in muscle (CL4176), were grown at 20° C. with ample 1. coli (OP50) bacteria, and on day 1 of adult life worms were lysed to release eggs and thus generate a synchronized cohort. Eggs were then placed on I00-mm NGM-agar Petri dishes seeded with RNAi-expressing bacteria (E coil H-T1′15) targeting a GFAP orthologue, or empty-vector control bacteria. Worms at the L3-L4 transition were upshifted to 25.5° C. to induce human Aβ1-42 transgene expression and assayed after 48 hours. Chemotaxis (Dosanjh et al., 2010) and paralysis (Dostal and Link, 2010) assays were performed as described previously (Ayyadevara et al., 2017; Ayyadevara et al., 2016b; Ayyadevara et al., 2016d; Kakraba et al., 2019).
as §1

[4] = tested on: C. elegans strain VH255; assay: Paralysis assay in human tau-expressing C. elegans; type: in vivo; conditions: 1-μM; compared with siRNA against ifp-1
Description: Paralysis assays in human tau-expressing C. elegans strain VH255. Transgenic C. elegans strain VH255, with pan-neuronal expression of human tau (Brandt et al., 2009), are maintained at 25° C. on agar plates overlaid with a lawn of E. coli (OP50) bacteria. Worms are lysed in alkaline hypochlorite solution to obtain unlaid eggs used to generate a synchronized culture. The eggs were then transferred to 100-mm NGM-agar plates, to which MSR1 or MSR2 had been added to a final concentration of 1 μM. For ifp-1 RNAi knockdown, the bacterial lawn consisted of strain HT115 expressing an exonic segment of double-stranded ifp-I RNA (see next section). The worms were washed and added to fresh, drug-equilibrated plates every two days. Assays were performed on day-3 adults to assess the fraction of paralyzed worms.

[5] = tested on: neuroblastoma cells; assay: Initial testing for cytotoxicity in neuroblastoma cells; type: cell-based, human; conditions: data not shown
[6] = tested on: C. elegans; assay: Effect on C. elegans development; type: in vivo; conditions: all doses tested, data not shown

SMILES: O=C(NC[C@H]1CC[C@H](CO)CC1)c1ccc(N2CCCC2)c(Cl)c1 [MSR1, 3-chloro-N-{[trans-4-(hydroxymethyl)cyclo-hexyl]methyl}-4-pyrrolidin-1-ylbenzamide]
reduction of aggregate intensity per worm ([1]; 10 μM): ~50%
reduction of aggregate intensity per worm ([1]; 0.1-μM): 35%
suppression of aggregate protein [2]: 60-75%
suppression of protein aggregation ([2]; summary statement: a variety of model systems): 60-75%
chemotaxis restored to [3]: ~90%
paralysis caused by tau aggregation [4]: alleviated to a similar extent

SMILES: O=C(c1cc2c([nH]c1=O)CCCC2)N1CCN(c2ccc(Cl)cn2)CC1 [MSR2, 3-{[4-(5-chloro-2-pyridinyl)-1-piperazinyl]carbonyl}-5,6,7,8-tetrahydro-2(1H)-quinolinone]
suppression of aggregate protein [2]: did not significantly reduce

C. elegans development [6]: delay C. elegans development
SMILES: O=C(c1ccc(N2CCCC2)c(Cl)c1)N1CCN(c2ccccn2)CC1 [MSR3, 1-(3-chloro-4-pyrrolidin-1-ylbenzoyl)-4-pyridin-2-ylpiperazine]
cytotoxicity [5]: cytotoxic
